This is an account of results in patent US20260109721A1, “IONIZABLE CATIONIC LIPIDS INCORPORATING SILICON: SYNTHESIS AND LNP FORMULATION” (priority 2023, published 2026).

In this data set the test system is HeLa cells. Nature of the data set: Cell viability assessment with resazurin assay (Method A). The following applies: human. Format: cell-based. Here is the method:
The synthesized lipids were tested in term of in vitro transfection efficacy and toxicity on HeLa cells. In order to perform the mentioned biological tests, appropriate LNPs had to be formulated from the synthesized lipids. The formulation technique was different in Method A and B. The particle size, polydispersity index (PDI) and zeta potential of resulting LNPs were determined by means of Dynamic Light Scattering technique (DLS). Prior to biological testing the encapsulation efficiency (EE) of the loaded LNPs was determined by using RiboGreen RNA assay. In case of Method A Luc mRNA while in case of Method B GFP mRNA was transfected into the cells. In parallel with the transfection experiments, toxicity of the investigated LNPs was determined, in case of Method A resazurin assay while in case of Method B MTT assay was used. Additionally, the toxicity of the lipids was investigated on HepG2 cells and IC50 values were determined.
This protocol is used to determine the metabolic activity of cells as a measure for cell viability after exposure to potentially toxic substances. Resazurin is converted in mitochondria by reduction to resorufin, which has a much higher fluorescence at ˜600 nm compared to unconverted resazurin. A lower amount/percentage of conversion is correlated with reduced cellular metabolism and indirectly to cellular death and toxicity. Care must be taken with interpretation of the read-out, as 50% reduction in resazurin conversion may mean 50% reduction of cellular metabolism of 100% alive cells, or 50% of cells dead, and any combination in between.
• 1. Prepare 0.25 mg/ml stock solution resazurin in fresh cell culture medium. Resazurin is auto-reducing over time in solution, especially in medium, and fresh stocks should be prepared every 2-3 days. Stocks should be stored at 4° C. and protected from light. For HeLa cells, DMEM/F12 with 10% FCS is used. • 2. Dilute stock solution 10× in fresh cell culture medium to 0.025 mg/ml->ready for application on cells. For HeLa cells, DMEM/F12 with 10% FCS is used. • 3. Collect 96-well plate and replace cell-culture spent medium with 100 μl per well resazurin solution. Add some resazurin solution for background measurement in wells not containing cells. • 4. Incubate for 50 minutes in incubator at 37° C., 5% CO2, 95% RH. • 5. Transfer resazurin solution to a fresh 96- or 384-well plate. • 6. Measure in plate reader using 540/25 nm (excitation) and 610/40 nm (emission) using standard settings (PTM low/OD-1.0). • 7. Subtract the average background measurement from all samples. Set the average of the negative controls (well receiving OptiMEM only during transfection) to 100% and express all values as percentage of the control activity. Typically, at lower levels of treatment, elevation of metabolic activity is shown, whereas for toxic substances, at toxic concentrations sigmoidal curves can be obtained, with lower activity indicating higher toxicity.
(The colour change of resazurin is a common sign of viable cells or microbes.)

In the case of `CCCCC/C=C\C/C=C\CCCCCCCCOC(CCCCCN(CCO)CCO)O[Si](C)(C)OCCCCCCCC/C=C\C/C=C\CCCCC` (stereo not drawn) [Example 39, (21Z,24Z)-3-(2-hydroxyethyl)-11,11-dimethyl-9-(((9Z,12Z)-octadeca-9,12-dien-1-yl)oxy)-10,12-dioxa-3-aza-11-silatriaconta-21,24-dien-1-ol], the “Cell Viability % (Average metabolic rate over all doses, Resazurin)” value (shortened to “Cell Viability %”) is listed as 102%.

Regarding `CCCCC/C=C\C/C=C\CCCCCCCCO[Si](C)(C)OC(CCCCCCC/C=C\C/C=C\CCCCC)OCCCCCCN(CCO)CCO` (stereo not drawn) [Example 40, (23Z,26Z)-11-((8Z,11Z)-heptadeca-8,11-dien-1-yl)-3-(2-hydroxyethyl)-13,13-dimethyl-10,12,14-trioxa-3-aza-13-siladotriaconta-23,26-dien-1-ol], the “Cell Viability %” value stood at 100%.

In the case of `CCCCCCCC/C=C\CCCCCCCCOC(CCCCCCCCCCCCCCC)O[Si](C)(C)OCCCCCCN(CCO)CCO` (stereo not drawn) [Example 41, (Z)-3-(2-hydroxyethyl)-11,11-dimethyl-13-pentadecyl-10,12,14-trioxa-3-aza-11-siladotriacont-23-en-1-ol], the “Cell Viability %” value was 98%.

`CCCCCCCC/C=C\CCCCCCCC(OCCCCCCCCCCCCCCCC)O[Si](C)(C)OCCCCCCN(CCO)CCO` (stereo not drawn) [Example 42, (Z)-13-(heptadec-8-en-1-yl)-3-(2-hydroxyethyl)-11,11-dimethyl-10,12,14-trioxa-3-aza-11-silatriacontan-1-ol]: the “Cell Viability %” value was 98%.

On to `CCCCC/C=C\C/C=C\CCCCCCCCOC(CCCCCCCCCCCCCCC)O[Si](C)(C)OCCCCCCN(CCO)CCO` (stereo not drawn) [Example 43, (23Z,26Z)-3-(2-hydroxyethyl)-11,11-dimethyl-13-pentadecyl-10,12,14-trioxa-3-aza-11-siladotriaconta-23,26-dien-1-ol], for which the “Cell Viability %” value is reported as 98%.

Consider `CCCCC/C=C\C/C=C\CCCCCCCC(OCCCCCCCCCCCCCCCC)O[Si](C)(C)OCCCCCCN(CCO)CCO` (stereo not drawn) [Example 44, 13-((8Z,11Z)-heptadeca-8,11-dien-1-yl)-3-(2-hydroxyethyl)-11,11-dimethyl-10,12,14-trioxa-3-aza-11-silatriacontan-1-ol], for which the “Cell Viability %” value is 94%.

`CCCCC/C=C\C/C=C\CCCCCCCC(OCCCCCCCC/C=C\CCCCCCCC)O[Si](C)(C)OCCCCCCN(CCO)CCO` (stereo not drawn) [Example 45, (Z)-13-((8Z,11Z)-heptadeca-8,11-dien-1-yl)-3-(2-hydroxyethyl)-11,11-dimethyl-10,12,14-trioxa-3-aza-11-siladotriacont-23-en-1-ol]: the “Cell Viability %” value is reported as 96%.

Take `CCCCC/C=C\C/C=C\CCCCCCCCOC(CCCCCCC/C=C\CCCCCCCC)O[Si](C)(C)OCCCCCCN(CCO)CCO` (stereo not drawn) [Example 46, (23Z,26Z)-13-((Z)-heptadec-8-en-1-yl)-3-(2-hydroxyethyl)-11,11-dimethyl-10,12,14-trioxa-3-aza-11-siladotriaconta-23,26-dien-1-ol]: the “Cell Viability %” value was found to be 95%.

As to `CCCCCCCC/C=C\CCCCCCCCOC(CCCCCCC/C=C\CCCCCCCC)O[Si](C)(C)OCCCCCCN(CCO)CCO` (stereo not drawn) [Example 47, (Z)-13-((Z)-heptadec-8-en-1-yl)-3-(2-hydroxyethyl)-11,11-dimethyl-10,12,14-trioxa-3-aza-11-siladotriacont-23-en-1-ol], the “Cell Viability %” value was 89%.

For the molecule `CCCCCCCCCCCCCCCCOC(CCCCCCCCCCCCCCC)O[Si](C)(C)OCCCCCCN(CCO)CCO` (stereo not drawn) [Example 49, 3-(2-hydroxyethyl)-11,11-dimethyl-13-pentadecyl-10,12,14-trioxa-3-aza-11-silatriacontan-1-ol], the “Cell Viability %” value was 93%.

With `CCCCCCCC/C=C\CCCCCCCC(OCC(CCCCCC)CCCCCCCC)O[Si](C)(C)OCCCCCCN(CCO)CCO` (stereo not drawn) [Example 50, (Z)-13-(heptadec-8-en-1-yl)-16-hexyl-3-(2-hydroxyethyl)-11,11-dimethyl-10,12,14-trioxa-3-aza-11-silatetracosan-1-ol], the “Cell Viability %” value is reported as 98%.

In the case of `CCCCCCCC/C=C\CCCCCCCCOC(CC[C@@H](C)C1CCC2C3CCC4C[C@H](OC)CC[C@]4(C)C3CC[C@@]21C)O[Si](C)(C)OCCCCCCN(CCO)CCO` (stereo partly drawn) [Example 51, (Z)-3-(2-hydroxyethyl)-13-((3R)-3-((3R,10S,13R)-3-methoxy-10,13-dimethylhexadecahydro-1H-cyclopenta[a]phenanthren-17-yl)butyl)-11,11-dimethyl-10,12,14-trioxa-3-aza-11-siladotriacont-23-en-1-ol], the “Cell Viability %” value is 92%.

Take `CCCCC/C=C\C/C=C\CCCCCCCCOC(CC[C@@H](C)C1CCC2C3CCC4C[C@H](OC)CC[C@]4(C)C3CC[C@@]21C)O[Si](C)(C)OCCCCCCN(CCO)CCO` (stereo partly drawn) [Example 52, (23Z,26Z)-3-(2-hydroxyethyl)-13-((3R)-3-((3R,10S,13R)-3-methoxy-10,13-dimethylhexadecahydro-1H-cyclopenta[a]phenanthren-17-yl)butyl)-11,11-dimethyl-10,12,14-trioxa-3-aza-11-siladotriaconta-23,26-dien-1-ol]: the “Cell Viability %” value is listed as 95%.

Regarding `CCCCC/C=C\C/C=C\CCCCCCCCOC(CCCCCCC/C=C\C/C=C\CCCCC)O[Si](C)(C)OCCCCCCN1CCOCC1` (stereo not drawn) [Example 55, 4-((20Z,23Z)-10-((8Z,11Z)-heptadeca-8,11-dien-1-yl)-8,8-dimethyl-7,9,11-trioxa-8-silanonacosa-20,23-dien-1-yl)morpholine], the “Cell Viability %” value worked out at 91%.

For `CCCCC/C=C\C/C=C\CCCCCCCCOC(CCCCCCC/C=C\C/C=C\CCCCC)O[Si](C)(C)OCCCCCCN1CCCCC1` (stereo not drawn) [Example 57, 1-((20Z,23Z)-10-((8Z,11Z)-heptadeca-8,11-dien-1-yl)-8,8-dimethyl-7,9,11-trioxa-8-silanonacosa-20,23-dien-1-yl)piperidine], the “Cell Viability %” value was 99%.

For `CCCCC/C=C\C/C=C\CCCCCCCCOC(CCCCCCC/C=C\C/C=C\CCCCC)O[Si](C)(C)OCCCCCCN(C)CC(O)CO` (stereo not drawn) [Example 59, (24Z,27Z)-14-((8Z,11Z)-heptadeca-8,11-dien-1-yl)-4,12,12-trimethyl-11,13,15-trioxa-4-aza-12-silatritriaconta-24,27-diene-1,2-diol], the “Cell Viability %” value stood at 90%.

On to `CCCCC/C=C\C/C=C\CCCCCCCCOC(CCCCCCC/C=C\C/C=C\CCCCC)O[Si](C)(C)OCCCCCCN(C)CCCCO` (stereo not drawn) [Example 60, (25Z,28Z)-15-((8Z,11Z)-heptadeca-8,11-dien-1-yl)-5,13,13-trimethyl-12,14,16-trioxa-5-aza-13-silatetratriaconta-25,28-dien-1-ol], for which the “Cell Viability %” value is reported as 88%.

As to `CCCCC/C=C\C/C=C\CCCCCCCCOC(CCCCCCC/C=C\C/C=C\CCCCC)O[Si](C)(C)OCCCCCCN(CCCCO)CCCCO` (stereo not drawn) [Example 62, (25Z,28Z)-15-((8Z,11Z)-heptadeca-8,11-dien-1-yl)-5-(4-hydroxybutyl)-13,13-dimethyl-12,14,16-trioxa-5-aza-13-silatetratriaconta-25,28-dien-1-ol], the “Cell Viability %” value was found to be 89%.
